According to patent publication US11945822B2, “Pyrazolo-triazine and/or pyrazolo-pxrimidine derivatives as selective inhibitor of cyclin dependent kinase” (QURIENT CO., LTD., priority 2018, dated 2024):

These compounds were tested against T1, CDK1/Cyclin B (Homo sapiens, UniProt P06493) (assay: Enzymatic assay for CDK1 (FRET based LANCE Ultra kinase assay)). Conditions: read-out: CDK1 enzymatic activity (IC50 activity range).
T1 construct: purchased Invitrogen PR4768C
Format: biochemical
Procedure, shortened: (§1)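 LANCE Ultra TR-FRET: ULight-MBP peptide (68 nM) with ATP at Km, […], 60 min at 23° C. EDTA plus Eu-anti-phospho-MBP added, another 60 min, then 665/615 nm emission read. Compounds tested as 8-dose 4-fold DMSO dilutions.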

T1 sequence (P06493 whole entry): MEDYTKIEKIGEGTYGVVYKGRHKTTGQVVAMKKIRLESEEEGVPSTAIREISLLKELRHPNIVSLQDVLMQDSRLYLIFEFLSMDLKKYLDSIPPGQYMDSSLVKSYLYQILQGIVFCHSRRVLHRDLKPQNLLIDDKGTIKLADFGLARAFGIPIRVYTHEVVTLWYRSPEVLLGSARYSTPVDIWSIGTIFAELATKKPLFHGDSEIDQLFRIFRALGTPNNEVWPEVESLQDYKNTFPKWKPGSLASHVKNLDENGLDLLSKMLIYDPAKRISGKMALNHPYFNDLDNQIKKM
T1 sequence (P14635 whole entry partner): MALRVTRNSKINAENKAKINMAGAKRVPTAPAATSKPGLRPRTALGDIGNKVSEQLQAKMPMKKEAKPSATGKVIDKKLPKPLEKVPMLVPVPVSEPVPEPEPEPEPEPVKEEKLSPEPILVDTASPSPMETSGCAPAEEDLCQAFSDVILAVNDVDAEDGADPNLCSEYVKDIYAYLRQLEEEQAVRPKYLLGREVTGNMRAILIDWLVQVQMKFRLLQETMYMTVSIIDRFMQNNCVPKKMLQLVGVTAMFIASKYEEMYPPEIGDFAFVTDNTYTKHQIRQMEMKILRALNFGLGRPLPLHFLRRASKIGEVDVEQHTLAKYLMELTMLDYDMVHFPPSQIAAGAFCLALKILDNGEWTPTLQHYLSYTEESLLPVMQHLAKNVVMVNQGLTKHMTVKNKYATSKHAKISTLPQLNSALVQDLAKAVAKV

IC50 | Compound
> 1000 nM | CC(C)c1cnn2c(NCc3ccccc3-c3ccc4ccccc4n3)nc(NCC3CCOCC3)nc12 [Compound 267]
> 1000 nM | CC(C)c1cnn2c(NCc3ccccc3-c3ccc4ccccc4n3)nc(N3CCOCC3)nc12 [Compound 268]
> 1000 nM | CC(C)c1cnn2c(NCc3ccccc3-c3ccc4ccccc4n3)nc(OC3CCC(O)CC3)nc12 (stereo not shown) [Compound 269]
> 1000 nM | CC(C)c1cnn2c(NCc3ccccc3-c3ccc4ccccc4n3)nc(NC3CCC(O)CC3)nc12 (stereo not shown) [Compound 270]

What follows are compounds tested against T2, CDK2/Cyclin A (Homo sapiens, UniProt P24941) (assay: Enzymatic assay for CDK2 (FRET based LANCE Ultra kinase assay)). Conditions: read-out: CDK2 enzymatic activity (IC50 activity range).
T2 construct: purchased Invitrogen PV6290
Format: biochemical
Procedure, shortened: as §1

IC50 | Compound
> 1000 nM | CC(C)c1cnn2c(NCc3ccccc3-c3ccc4ccccc4n3)nc(NCC3CCOCC3)nc12 [Compound 267]
> 1000 nM | CC(C)c1cnn2c(NCc3ccccc3-c3ccc4ccccc4n3)nc(N3CCOCC3)nc12 [Compound 268]
> 1000 nM | CC(C)c1cnn2c(NCc3ccccc3-c3ccc4ccccc4n3)nc(OC3CCC(O)CC3)nc12 (stereo not shown) [Compound 269]
> 1000 nM | CC(C)c1cnn2c(NCc3ccccc3-c3ccc4ccccc4n3)nc(NC3CCC(O)CC3)nc12 (stereo not shown) [Compound 270]

What follows are compounds tested against T3, CDK5/p25 (Homo sapiens, UniProt Q00535) (assay: Enzymatic assay for CDK5 (FRET based LANCE Ultra kinase assay)). Conditions: read-out: CDK5 enzymatic activity (IC50 activity range).
T3 construct: purchased Invitrogen PR8543B
T3 sequence (Q00535 whole entry): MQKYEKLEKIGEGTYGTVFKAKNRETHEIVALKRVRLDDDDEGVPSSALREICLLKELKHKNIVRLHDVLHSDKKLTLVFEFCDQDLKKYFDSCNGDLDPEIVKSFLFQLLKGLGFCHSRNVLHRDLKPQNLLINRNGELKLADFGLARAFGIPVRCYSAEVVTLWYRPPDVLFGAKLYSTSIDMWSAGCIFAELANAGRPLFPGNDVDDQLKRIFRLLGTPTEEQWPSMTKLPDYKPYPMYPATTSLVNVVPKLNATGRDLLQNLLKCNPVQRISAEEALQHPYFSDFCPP
T3 sequence (Q15078 99-307 partner limits assumed): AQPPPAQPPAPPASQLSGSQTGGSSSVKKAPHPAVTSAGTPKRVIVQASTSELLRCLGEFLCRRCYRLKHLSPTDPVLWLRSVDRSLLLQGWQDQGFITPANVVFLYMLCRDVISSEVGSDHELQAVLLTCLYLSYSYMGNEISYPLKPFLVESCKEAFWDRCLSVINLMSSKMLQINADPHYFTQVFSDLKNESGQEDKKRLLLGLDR
Format: biochemical
Procedure, shortened: as §1

IC50 | Compound
> 1000 nM | CC(C)c1cnn2c(NCc3ccccc3-c3ccc4ccccc4n3)nc(NCC3CCOCC3)nc12 [Compound 267]
> 1000 nM | CC(C)c1cnn2c(NCc3ccccc3-c3ccc4ccccc4n3)nc(N3CCOCC3)nc12 [Compound 268]
> 1000 nM | CC(C)c1cnn2c(NCc3ccccc3-c3ccc4ccccc4n3)nc(OC3CCC(O)CC3)nc12 (stereo not shown) [Compound 269]
> 1000 nM | CC(C)c1cnn2c(NCc3ccccc3-c3ccc4ccccc4n3)nc(NC3CCC(O)CC3)nc12 (stereo not shown) [Compound 270]

The compounds below were run against T4, CDK7/Cyclin H/MNAT1 (Homo sapiens, UniProt P50613) (assay: Enzymatic assay for CDK7 (FRET based LANCE Ultra kinase assay)). Conditions: CDK1/CDK7.
T4 construct: purchased Invitrogen PR6749B
T4 sequence (P50613 whole entry): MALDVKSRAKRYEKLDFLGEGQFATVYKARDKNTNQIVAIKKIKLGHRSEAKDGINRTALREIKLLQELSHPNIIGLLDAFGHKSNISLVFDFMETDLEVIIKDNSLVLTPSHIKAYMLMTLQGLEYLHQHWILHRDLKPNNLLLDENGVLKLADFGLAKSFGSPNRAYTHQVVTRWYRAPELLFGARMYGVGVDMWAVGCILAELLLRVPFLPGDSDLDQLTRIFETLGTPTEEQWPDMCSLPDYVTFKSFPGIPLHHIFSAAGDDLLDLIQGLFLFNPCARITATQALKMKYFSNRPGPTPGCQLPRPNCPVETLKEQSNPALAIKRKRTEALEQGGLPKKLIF
T4 sequence (P51946 whole entry partner): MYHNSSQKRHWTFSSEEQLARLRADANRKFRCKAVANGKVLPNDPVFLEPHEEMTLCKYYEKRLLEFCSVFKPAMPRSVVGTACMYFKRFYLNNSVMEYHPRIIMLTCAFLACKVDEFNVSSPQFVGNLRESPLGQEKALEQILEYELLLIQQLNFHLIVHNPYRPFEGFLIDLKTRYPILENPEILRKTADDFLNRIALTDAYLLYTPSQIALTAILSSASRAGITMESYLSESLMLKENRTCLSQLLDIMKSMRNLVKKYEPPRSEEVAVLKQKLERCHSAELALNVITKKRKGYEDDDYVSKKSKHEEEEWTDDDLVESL
T4 sequence (P51948 whole entry partner): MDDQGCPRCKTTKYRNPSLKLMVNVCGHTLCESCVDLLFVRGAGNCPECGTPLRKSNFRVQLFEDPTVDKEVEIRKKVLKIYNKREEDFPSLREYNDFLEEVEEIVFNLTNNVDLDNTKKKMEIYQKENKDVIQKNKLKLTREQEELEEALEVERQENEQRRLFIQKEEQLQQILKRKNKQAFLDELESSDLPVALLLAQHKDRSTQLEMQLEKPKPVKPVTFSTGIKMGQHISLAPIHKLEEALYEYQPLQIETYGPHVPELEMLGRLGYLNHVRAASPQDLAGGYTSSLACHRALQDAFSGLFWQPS
Format: biochemical
Procedure, shortened: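 LANCE Ultra TR-FRET kinase assay using a ULight-labeled peptide substrate and a Eu-labeled anti-phospho antibody, with ATP at its Km. Purified CDK/cyclin complex was added to compound after brief centrifugation.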

CDK1/CDK7: Selectivity of CDK7 inhibition over CDK1 inhibition | Compound
A (A=greater than 200 fold) | CC(C)c1cnn2c(NCc3ccccc3-c3ccc4ccccc4n3)nc(N3CCOCC3)nc12 [Compound 268]
A (A=greater than 200 fold) | CC(C)c1cnn2c(NCc3ccccc3-c3ccc4ccccc4n3)nc(OC3CCC(O)CC3)nc12 (stereo not shown) [Compound 269]
A (A=greater than 200 fold) | CC(C)c1cnn2c(NCc3ccccc3-c3ccc4ccccc4n3)nc(NC3CCC(O)CC3)nc12 (stereo not shown) [Compound 270]

Compound | CDK1/CDK7: Selectivity of CDK7 inhibition over CDK1 inhibition
CC(C)c1cnn2c(NCc3ccccc3-c3ccc4ccccc4n3)nc(NCC3CCOCC3)nc12 [Compound 267] | B (B=less than 200 fold, but greater than 20 fold)

Same assay, conditions: CDK2/CDK7

CDK2/CDK7: Selectivity of CDK7 inhibition over CDK2 inhibition | Compound
A (A=greater than 200 fold) | CC(C)c1cnn2c(NCc3ccccc3-c3ccc4ccccc4n3)nc(N3CCOCC3)nc12 [Compound 268]
A (A=greater than 200 fold) | CC(C)c1cnn2c(NCc3ccccc3-c3ccc4ccccc4n3)nc(OC3CCC(O)CC3)nc12 (stereo not shown) [Compound 269]
A (A=greater than 200 fold) | CC(C)c1cnn2c(NCc3ccccc3-c3ccc4ccccc4n3)nc(NC3CCC(O)CC3)nc12 (stereo not shown) [Compound 270]

Compound | CDK2/CDK7: Selectivity of CDK7 inhibition over CDK2 inhibition
CC(C)c1cnn2c(NCc3ccccc3-c3ccc4ccccc4n3)nc(NCC3CCOCC3)nc12 [Compound 267] | B (B=less than 200 fold, but greater than 20 fold)

Same assay, conditions: CDK5/CDK7

CDK5/CDK7: Selectivity of CDK7 inhibition over CDK5 inhibition | Compound
A (A=greater than 200 fold) | CC(C)c1cnn2c(NCc3ccccc3-c3ccc4ccccc4n3)nc(N3CCOCC3)nc12 [Compound 268]
A (A=greater than 200 fold) | CC(C)c1cnn2c(NCc3ccccc3-c3ccc4ccccc4n3)nc(OC3CCC(O)CC3)nc12 (stereo not shown) [Compound 269]
A (A=greater than 200 fold) | CC(C)c1cnn2c(NCc3ccccc3-c3ccc4ccccc4n3)nc(NC3CCC(O)CC3)nc12 (stereo not shown) [Compound 270]

Compound | CDK5/CDK7: Selectivity of CDK7 inhibition over CDK5 inhibition
CC(C)c1cnn2c(NCc3ccccc3-c3ccc4ccccc4n3)nc(NCC3CCOCC3)nc12 [Compound 267] | B (B=less than 200 fold, but greater than 20 fold)

Same assay, conditions: read-out: CDK7 enzymatic activity (IC50 activity range)

IC50 | Compound
100 to 1000 nM | CC(C)c1cnn2c(NCc3ccccc3-c3ccc4ccccc4n3)nc(NCC3CCOCC3)nc12 [Compound 267]
< 100 nM | CC(C)c1cnn2c(NCc3ccccc3-c3ccc4ccccc4n3)nc(N3CCOCC3)nc12 [Compound 268]
< 100 nM | CC(C)c1cnn2c(NCc3ccccc3-c3ccc4ccccc4n3)nc(OC3CCC(O)CC3)nc12 (stereo not shown) [Compound 269]
< 100 nM | CC(C)c1cnn2c(NCc3ccccc3-c3ccc4ccccc4n3)nc(NC3CCC(O)CC3)nc12 (stereo not shown) [Compound 270]

What follows are compounds tested on H460 (assay: Cellular H460 viability assay (CellTiter-Glo, 72 hours)). Conditions: Homo sapiens, NCI-H460.
Format: cell-based
Procedure, shortened: (§2)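 72 h treatment, 37 °C, 5% CO2; DMSO ctrl, final <0.1%; CellTiter-Glo luminescence; n=2.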

IC50 | Compound
1000 to 10000 nM | CC(C)c1cnn2c(NCc3ccccc3-c3ccc4ccccc4n3)nc(NCC3CCOCC3)nc12 [Compound 267]
< 1000 nM | CC(C)c1cnn2c(NCc3ccccc3-c3ccc4ccccc4n3)nc(N3CCOCC3)nc12 [Compound 268]
< 1000 nM | CC(C)c1cnn2c(NCc3ccccc3-c3ccc4ccccc4n3)nc(OC3CCC(O)CC3)nc12 (stereo not shown) [Compound 269]
1000 to 10000 nM | CC(C)c1cnn2c(NCc3ccccc3-c3ccc4ccccc4n3)nc(NC3CCC(O)CC3)nc12 (stereo not shown) [Compound 270]

What follows are compounds tested on MV4-11 (assay: Cellular MV4-11 viability assay (CellTiter-Glo, 72 hours)). Conditions: Homo sapiens.
Format: cell-based
Procedure, shortened: as §2

IC50 | Compound
> 10000 nM | CC(C)c1cnn2c(NCc3ccccc3-c3ccc4ccccc4n3)nc(NCC3CCOCC3)nc12 [Compound 267]
> 10000 nM | CC(C)c1cnn2c(NCc3ccccc3-c3ccc4ccccc4n3)nc(N3CCOCC3)nc12 [Compound 268]
1000 to 10000 nM | CC(C)c1cnn2c(NCc3ccccc3-c3ccc4ccccc4n3)nc(OC3CCC(O)CC3)nc12 (stereo not shown) [Compound 269]
1000 to 10000 nM | CC(C)c1cnn2c(NCc3ccccc3-c3ccc4ccccc4n3)nc(NC3CCC(O)CC3)nc12 (stereo not shown) [Compound 270]

The compounds below were run on A2780 (assay: Cellular A2780 viability assay (CellTiter-Glo, 72 hours)). Conditions: Homo sapiens.
Format: cell-based
Excerpt: Human T-cell acute lymphoblastic leukemia cell line, MOLT-4 (ATCC, Cat #CRL-1582), Human multiple myeloma cell line, RPMI-8226 (Invitrogen, Cat #22400-089) and MM.1S (ATCC, Cat #CRL-2974), NSCLC (Non-small cell lung cancer) cell line H460 (ATCC, Cat #HTB-177), Human colon colorectal carcinoma cell line HCT116 (ATCC, Cat #CCL-247), Human acute monocytic leukemia cell line MV4-11 (ATCC, Cat #CRL-9591), OVCAR-3 (ATCC, Cat #HTB-161) and A2780 (ECACC, Cat #93112519) were obtained from ATCC. Cells were grown in RPMI-1640 media (Invitrogen, Cat #22400-089) supplemented with 10% FBS (Invitrogen, Cat #10099141) and 1% penicillin/streptomycin (Invitrogen, Cat #15070063) and cultured at 37° C., 5% CO2 in a humidified chamber. All cell lines were routinely tested for mycoplasma.
The effect of the CDK7 inhibitor to inhibit the growth of target cancer cells was evaluated through the 72 hours time period of viability assay. Briefly, the candidate cell line ware plated in 96 well plate at the following density of cells respectively. 1×10^4 cells/well for MOLT-4, RPMI-8226, MV4-11 and MM.1S, 5×10^3 for H460, HCT116 and OVCAR-3 and IX 10^3 for A2780. After 24 hours, the cells were treated with various concentrations of the compound (ranging from 0.0015 uM to 10 uM). DMSO solvent without compound served as a control and final DMSO concentration less than 0.1%. After 72 hours of incubation at 37° C., 5% CO2 incubator, cells were analyzed for the viability using the CellTiter-Glo Luminescent Cell Viability Assay (Promega, Cat #G7570). All viability assays were performed in duplicate and Luminescence was read using an Envision (Perkin Elmer, USA). Data was analyzed using XLfit software.

IC50 | Compound
1000 to 10000 nM | CC(C)c1cnn2c(NCc3ccccc3-c3ccc4ccccc4n3)nc(NCC3CCOCC3)nc12 [Compound 267]
1000 to 10000 nM | CC(C)c1cnn2c(NCc3ccccc3-c3ccc4ccccc4n3)nc(N3CCOCC3)nc12 [Compound 268]
≤ 1000 nM | CC(C)c1cnn2c(NCc3ccccc3-c3ccc4ccccc4n3)nc(OC3CCC(O)CC3)nc12 (stereo not shown) [Compound 269]
1000 to 10000 nM | CC(C)c1cnn2c(NCc3ccccc3-c3ccc4ccccc4n3)nc(NC3CCC(O)CC3)nc12 (stereo not shown) [Compound 270]
